ChEMBL document CHEMBL1127156, “m-Alkyl, ,,-trifluoroacetophenones: A new class of potent transition state analog inhibitors of acetylcholinesterase” (Bioorg Med Chem Lett, 1993)

Target: Acetylcholinesterase (Torpedo californica, UniProt P04058)
Experiment: Tested for the ability to inhibit Acetylcholinesterase (AChE) from Torpedo californica
Design: species or system Tetronarce californica

Chain of Acetylcholinesterase (P04058 whole entry): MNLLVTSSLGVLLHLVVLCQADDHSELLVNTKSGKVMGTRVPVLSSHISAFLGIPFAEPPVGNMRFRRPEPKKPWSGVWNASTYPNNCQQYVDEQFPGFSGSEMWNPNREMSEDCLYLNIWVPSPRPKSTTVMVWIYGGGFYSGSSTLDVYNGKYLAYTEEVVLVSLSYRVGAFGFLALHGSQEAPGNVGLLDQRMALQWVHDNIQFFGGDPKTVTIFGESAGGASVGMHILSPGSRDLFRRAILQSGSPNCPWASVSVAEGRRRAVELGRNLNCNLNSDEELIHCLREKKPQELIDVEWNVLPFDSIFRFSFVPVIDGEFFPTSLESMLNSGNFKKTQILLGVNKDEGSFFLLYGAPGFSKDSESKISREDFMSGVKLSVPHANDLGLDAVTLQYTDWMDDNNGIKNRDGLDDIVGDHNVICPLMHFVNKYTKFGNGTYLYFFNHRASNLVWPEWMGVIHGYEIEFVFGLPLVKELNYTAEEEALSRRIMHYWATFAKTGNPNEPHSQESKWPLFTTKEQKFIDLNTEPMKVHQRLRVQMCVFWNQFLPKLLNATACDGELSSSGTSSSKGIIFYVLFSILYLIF

First: CCc1cccc(C(=O)C(F)(F)F)c1
Second: Cc1cccc(C(=O)C(F)(F)F)c1
The Ki of the first is 6.2-fold lower: 390 pM for the first, 2400 pM for the second.

Compared with `O=C(c1cccc(C(F)(F)F)c1)C(F)(F)F`, `CC(C)(C)c1cccc(C(=O)C(F)(F)F)c1` is 110-fold lower in Ki: 390 pM for the first, 3.7 pM for the second. The second binds more tightly here.

Work on `CC(C)c1cccc(C(=O)C(F)(F)F)c1` yielded a Ki of 8.5 pM.
